Test results reported in paper PMC10850208, “Engineering amino acid residues of pentacyclic triterpene synthases for improving the activity” (Applied Microbiology and Biotechnology, 2024).

Legend:
Assay in all cases: product titer in engineered yeast by UHPLC
Format in all cases: cell-based
[1] = target: T1, MdOSC1 (α-amyrin synthase from Malus × domestica) (Malus domestica, UniProt C7SCX0); details: endogenous substrate of S. cerevisiae, not added; 30 °C, 72 h shake flask; mixed product with β-amyrin
T1 construct: gene OSC1; synthesized gene, one copy integrated in the genome of S. cerevisiae SP1, PGK1 promoter; whole-cell production

[2] = target: T2, GgbAS (β-amyrin synthase from Glycyrrhiza glabra) (Glycyrrhiza glabra, UniProt Q9MB42); details: endogenous substrate of S. cerevisiae, not added; 30 °C, 72 h shake flask
T2 construct: gene bAS1; synthesized gene, one copy integrated in the genome of S. cerevisiae SP1, PGK1 promoter; whole-cell production

[3] = target: T3, OEW (lupeol synthase from Olea europaea) (Olea europaea, UniProt Q9SLW3); details: endogenous substrate of S. cerevisiae, not added; 30 °C, 72 h shake flask
T3 construct: synthesized gene, one copy integrated in the genome of S. cerevisiae SP1, PGK1 promoter; whole-cell production
T3 sequence (Q9SLW3 1-758): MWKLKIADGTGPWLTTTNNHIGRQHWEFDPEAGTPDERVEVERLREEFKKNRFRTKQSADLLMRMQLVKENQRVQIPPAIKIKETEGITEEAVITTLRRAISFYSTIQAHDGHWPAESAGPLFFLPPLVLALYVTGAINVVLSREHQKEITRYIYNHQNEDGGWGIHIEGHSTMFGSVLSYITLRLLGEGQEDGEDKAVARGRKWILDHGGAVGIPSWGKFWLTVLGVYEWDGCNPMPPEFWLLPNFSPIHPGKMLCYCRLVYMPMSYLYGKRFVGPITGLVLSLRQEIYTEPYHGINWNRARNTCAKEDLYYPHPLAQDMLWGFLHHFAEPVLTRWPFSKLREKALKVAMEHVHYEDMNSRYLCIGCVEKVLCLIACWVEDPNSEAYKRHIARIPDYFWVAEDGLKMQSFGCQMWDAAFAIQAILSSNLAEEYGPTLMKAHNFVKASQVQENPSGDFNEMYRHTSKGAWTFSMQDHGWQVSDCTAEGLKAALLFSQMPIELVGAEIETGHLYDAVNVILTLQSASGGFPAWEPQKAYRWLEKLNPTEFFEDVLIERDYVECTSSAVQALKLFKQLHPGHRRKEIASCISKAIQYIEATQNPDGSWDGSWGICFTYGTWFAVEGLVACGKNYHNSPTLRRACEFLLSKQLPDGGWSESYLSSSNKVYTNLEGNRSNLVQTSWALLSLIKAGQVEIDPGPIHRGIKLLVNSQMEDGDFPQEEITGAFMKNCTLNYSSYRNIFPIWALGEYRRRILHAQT

T2 sequence (Q9MB42 whole entry): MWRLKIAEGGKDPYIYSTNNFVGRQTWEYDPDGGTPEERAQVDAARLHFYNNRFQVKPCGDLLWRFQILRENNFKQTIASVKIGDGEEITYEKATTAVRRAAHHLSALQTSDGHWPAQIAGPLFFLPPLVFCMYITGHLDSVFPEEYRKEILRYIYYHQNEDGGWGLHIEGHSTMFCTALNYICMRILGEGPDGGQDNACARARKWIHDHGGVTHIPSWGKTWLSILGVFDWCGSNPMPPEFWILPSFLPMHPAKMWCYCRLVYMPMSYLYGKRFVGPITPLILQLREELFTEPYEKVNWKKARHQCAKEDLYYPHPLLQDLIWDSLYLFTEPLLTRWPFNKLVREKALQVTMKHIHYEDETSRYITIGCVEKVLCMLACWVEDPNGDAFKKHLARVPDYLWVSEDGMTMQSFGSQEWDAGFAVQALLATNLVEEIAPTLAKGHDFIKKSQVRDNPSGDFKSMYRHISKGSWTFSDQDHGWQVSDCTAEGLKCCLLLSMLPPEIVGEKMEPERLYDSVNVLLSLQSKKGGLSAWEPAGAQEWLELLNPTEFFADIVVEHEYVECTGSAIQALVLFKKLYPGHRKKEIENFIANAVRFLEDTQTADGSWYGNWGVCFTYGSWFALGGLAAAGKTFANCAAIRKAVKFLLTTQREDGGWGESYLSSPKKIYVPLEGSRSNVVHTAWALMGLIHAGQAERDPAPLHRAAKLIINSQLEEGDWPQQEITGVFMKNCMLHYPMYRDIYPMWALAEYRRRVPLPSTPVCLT
T1 sequence (C7SCX0 entry or part of it): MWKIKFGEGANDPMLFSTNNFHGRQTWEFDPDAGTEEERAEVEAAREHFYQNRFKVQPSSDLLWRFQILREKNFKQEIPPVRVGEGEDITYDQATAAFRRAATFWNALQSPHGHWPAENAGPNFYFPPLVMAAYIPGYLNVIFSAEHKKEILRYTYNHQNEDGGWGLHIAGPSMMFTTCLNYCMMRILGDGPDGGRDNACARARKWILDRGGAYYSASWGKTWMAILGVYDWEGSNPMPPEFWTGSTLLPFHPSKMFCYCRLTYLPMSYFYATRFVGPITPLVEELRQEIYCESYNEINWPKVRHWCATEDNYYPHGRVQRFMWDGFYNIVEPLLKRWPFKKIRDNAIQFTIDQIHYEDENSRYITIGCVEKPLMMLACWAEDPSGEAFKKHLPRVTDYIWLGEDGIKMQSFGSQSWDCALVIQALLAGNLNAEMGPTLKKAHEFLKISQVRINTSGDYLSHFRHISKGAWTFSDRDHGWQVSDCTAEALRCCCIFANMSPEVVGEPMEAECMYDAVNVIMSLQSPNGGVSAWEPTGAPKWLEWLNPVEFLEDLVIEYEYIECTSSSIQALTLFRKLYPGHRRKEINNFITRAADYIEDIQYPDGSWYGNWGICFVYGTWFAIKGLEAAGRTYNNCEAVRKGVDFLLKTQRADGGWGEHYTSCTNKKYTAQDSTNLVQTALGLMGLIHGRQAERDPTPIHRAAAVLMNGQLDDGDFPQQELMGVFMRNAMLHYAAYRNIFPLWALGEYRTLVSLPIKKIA

`C[C@H]1[C@H](C)CC[C@]2(C)CC[C@]3(C)C(=CC[C@@H]4[C@@]5(C)CC[C@H](O)C(C)(C)[C@@H]5CC[C@]43C)[C@H]12` [α-amyrin] was tested, and the “product titer in engineered yeast by UHPLC” value (shortened to “product titer”) [1] was “increase in the titer of α-amyrin and β-amyrin, compared with these of the strain SP1”.

For `CC1(C)CC[C@]2(C)CC[C@]3(C)C(=CC[C@@H]4[C@@]5(C)CC[C@H](O)C(C)(C)[C@@H]5CC[C@]43C)[C@@H]2C1` [β-amyrin], the “product titer” value [2] was “higher titer and specific titer of β-amyrin than these of strain SP1 harboring the wild-type GgbAS”.

For `C=C(C)[C@@H]1CC[C@]2(C)CC[C@]3(C)[C@H](CC[C@@H]4[C@@]5(C)CC[C@H](O)C(C)(C)[C@@H]5CC[C@]43C)[C@@H]12` [lupeol], the “product titer” value [3] was “increase in the production of lupeol compared with that of the strain SP1 harboring”.
